Measured values from patent US20210093582A1, “COMPOSITIONS FOR REDUCING TRIMETHYLAMINE-N-OXIDE AND RELATED THERAPEUTIC APPLICATIONS” (priority 2019, published 2021).

Key:
Type in all cases: in vivo, C57BL/6 (B6) mice
VCAM-1 = experiment: Aortic vascular inflammation gene expression by qPCR (VCAM-1); details: female B6 mice, 1.3% carnitine water, 6 weeks; mRNA normalized to GAPDH
Experimental: (§1) Six-week-old female C57BL/6 (B6) mice were purchased from BioLASCO (Taipei, Taiwan) and were acclimatized for 1 week. Mice were fed ad libitum with experimental diets, LabDiet Rodent 5001. The animal use protocol listed below has been reviewed and approved by the Institutional Animal Care and Use Committee (NTU105-EL-00115). In the experiment, mice were randomly divided into four groups: normal diet, 1.3% carnitine water, 1.3% carnitine water with 0.05% pterostilbene diet (around 250 mg/kg/day), and 1.3% carnitine water with antibiotic cocktail for 6 weeks. Mice received a cocktail of oral antibiotics (vancomycin 500 mg/L, metronidazole 1 g/L, neomycin 1 g/L, and ampicillin 1 g/L in drinking water) for 6 weeks. […] At the end of the six-week study, mice were euthanized by CO2 asphyxiation.
(§2) Hepatic and aortic RNA was extracted using TRIzol reagent. Phase separation was performed by adding 200 μl chloroform/1 mlTRIzol. […]
(§3) Quality of RNA and RNA concentrations were then quantified using NanoDrop 1000 spectrophotometer. […]
(§4) mRNA levels were determined by quantitative real-time PCR usingStepOnePlus Real-Time PCR system and SYBR Green master mix as compared to constitutively expressed gene (GAPDH) using the relative quantification method (ΔΔCt), Primer sequences for SYBR Green reactions were designed and synthesized by Mission Biotech.

TNF-α = experiment: Aortic vascular inflammation gene expression by qPCR (TNF-α); details: female B6 mice, 1.3% carnitine water, 6 weeks; mRNA normalized to GAPDH
Experimental: as §1, §2, §3, §4

E-selectin = experiment: Aortic vascular inflammation gene expression by qPCR (E-selectin); details: female B6 mice, 1.3% carnitine water, 6 weeks; mRNA normalized to GAPDH
Experimental: as §1, §2, §3, §4

[1] = Plasma TMAO level by LC-MS/MS; details: female B6 mice, 1.3% carnitine water, 6 weeks
Experimental: as §1
LC-MS/MS was used to quantify plasma L-carnitine and TMAO in positive MRM mode, with the instrument water UPLC system (Acquity, Waters, Mildford, Mass., USA) and triple quadrupole mass spectrometer (TQS, Waters Micromass, Manchester, UK). […]
The MS parameters were set as follow: 100° C. for the source temperature, 650° C. for the desolvation temperature, 2 L/h for the cone gas flow, 600 L/h for the desolvation gas flow and 1500 V for the capillary voltage. Cone voltage was set a 10 V. Concentrations of each analyte in samples were determined by calibration curves.

cecal microbiota = experiment: Cecal microbiota composition by 16S rRNA gene sequencing; details: mouse cecum, 6 weeks
Experimental: as §1
Microbial community composition was assessed by pyrosequencing 16S rRNA genes derived from mouse cecum (n=3 for each group). Total DNA was isolated and purified using InnuSPEED Stool DNA kit according to the manufacturer's instructions. The quality of DNA samples was assessed by NanoDrop 1000 spectrophotometer. DNA samples were sent to Biotools Co., Ltd.for 16S rRNA gene amplification, sequence library construction and sequencing. […] The library DNA was sequenced by IlluminaHiSeq2500 platform, and paired-end reads (250 bp) were generated.

FMO3 = experiment: Hepatic FMO3 mRNA expression by RT-qPCR; details: female B6 mice, 6 weeks; normalized to GAPDH
Experimental: as §1, §2, §3, §4

With `C[N+](C)(C)C[C@H](O)CC(=O)[O-]` [Carnitine, L-carnitine] the “expression of VCAM-1 in aortas” value (VCAM-1) was “significantly enhanced”, the “expression of TNF-α in aortas” value (TNF-α) was “significantly enhanced” and the “expression of E-selectin in aortas” value (E-selectin) was “significantly enhanced”. The “increase in circulating TMAO level compared to ND group” value [1] was “up to 8 folds”, the “Erysipelotrichia (Turibacter) proportion / relative abundance” value (cecal microbiota) was “increase” and the “hepatic FMO3 mRNA expression level” value (FMO3) was “approximately three-fold increase”.
